Article PMC12749748, “Chemically-induced degradation of the endoplasmic-reticulum stress sensor IRE1 by a VHL-recruiting chimera” (Nature Communications, 2025)
“And” between values parts separate entries of the source, which are not always exact repeats. Identical values can stand only once.

Experiments:
[1] = target: T1, IRE1.KR with recombinant CRL2^VHL complex (Homo sapiens, UniProt O75460+P40337); experiment: In vitro ubiquitination of recombinant IRE1.KR by CRL2^VHL; assay type: biochemical; conditions: 0.2 µM IRE1, 0.2 µM G6374, UBE2R1, native ubiquitin
T1 construct: Recombinant human IRE1.KR (G547-L977) was purified using an established protocol; His6 (with TEV protease cleavage site) (N, cleaved yes); made in house; host or cells: Sf9 (IRE1.KR)
Procedure: The protocol for the in vitro ubiquitination experiment was adapted from a previous publication.
The ubiquitination reaction buffer contained 30 mM Tris pH 7.5, 100 mM NaCl, 5 mM MgCl2, 2 mM ATP, and 2 mM DTT. Recombinant proteins and G6374 with high stock concentrations were pre-diluted in binding buffer containing 30 mM Tris, pH 7.5, 100 mM NaCl, 1 mM DTT for the purpose of accurate pipetting.
The 0.2 µM IRE1: 0.2 µM G6374 (or DMSO) complex was pre-incubated for 15 min at room temperature, then incubated with the neddylation reaction mixture containing 0.2 µM VHL:EloB:EloC, 0.2 µM CUL2-RBX1, 0.1 µM NAE1:UBA3, 1 μM UBE2M, 3 μM NEDD8 for another 15 min at room temperature. Meanwhile, the ubiquitination reaction mixture containing 1 μM UBE1, 5 μM UBE2R1 (or UBE2D1, UBE2D2), and 500 μM ubiquitin or methyl-ubiquitin was prepared and pre-incubated for 15 min before incubation with the neddylation reaction mixture containing IRE1:G6374. Samples were taken at each timepoint and quenched in NuPage LDS buffer supplemented with NuPAGE sample reducing agent, then boiled at 95 °C for 10 min. Ubiquitinated products were visualized by IB with the IRE1 antibody.

IRE1 H579A = target: T2, IRE1 H579A (Homo sapiens, UniProt O75460+P40337, H579A); experiment: NanoLuc signal IRE1 depletion, IRE1 H579A, HEK293T cells; assay type: cell-based; conditions: HEK-293T
T2 construct: N2731; host or cells: HEK293T
Procedure: (§1) 8 × 10^5 293T cells per well were seeded in 6-well plates (Costar, #3516) and incubated at 37 °C, 5% CO2 for 6 h. A mixture of 0.2 µg ERN1 (IRE1)-NanoLuc Fusion Vector (Promega, NV1321), 2 µg HaloTag-VHL Fusion Vector (Promega, N2731), 6 µl FuGENE HD Transfection Reagent (Promega, E2311), and 100 µL Opti-MEM I reduced serum medium (Gibco, #31985062) per well was incubated at room temperature for 20 min before adding to cells. For expression of IRE1 mutants, site-directed mutagenesis was performed using the ERN1-NanoLuc Fusion Vector as the DNA template, and the transfection mixture was prepared in the same way as WT IRE1. After 18 h, cells from 6-well plates were trypsinized, resuspended in Opti-MEM I reduced serum medium, and reseeded into 96-well plates (Costar, #3917), with or without the addition of HaloTag NanoBRET 618 Ligand (Promega, G9801). After 18 h of incubation, a titration of G6374 (dilutions made in Opti-MEM I reduced serum medium) was added to the cells. After 2 h of G6374 treatment, NanoBRET Nano-Glo Substrate (Promega, N1571) was added to cells. The 96-well plates were imaged by GloMax Discover Microplate Reader (Promega, GM3000) with the default “BRET: NanoBRET 618” protocol (Donor: 450 BP; Acceptor: 600 LP; Integration: 0.3 s). Data analysis was performed according to the user manual.

IRE1 E621A, E836A:VHL = target: T3, IRE1 E621A, E836A:VHL (Homo sapiens, UniProt O75460+P40337, E621A/E836A); experiment: NanoBRET IRE1:VHL interaction, IRE1 E621A, E836A, HEK293T cells; assay type: cell-based
T3 construct: N2731; host or cells: HEK293T
Procedure: as §1

VCB [2] = target: VCB (Homo sapiens, UniProt P40337); experiment: Fluorescence polarization displacement of FAM-labeled HIF-1α peptide from VCB; assay type: binding
Procedure: (§2) Assays were performed in duplicates on ProxiPlate-384 F Plus (Revvity, #6008260) with a total well volume of 16 µL. Each well contained 50 nM of FAM-labeled HIF-1α peptide (FAM-DEALA-Hyp-YIPD, biotechne, #7287), 500 nM of VCB protein, and a titration of G6374 (2-fold serial dilutions from […] to 625 nM, then 1.3-fold serial dilutions to 284.5 nM, followed by 2-fold serial dilutions to 8.9 nM) or IRE1.KR:G6374 (constant concentration of 2.4 µM IRE1.KR and the same serial dilution of G6374 as mentioned above) in 50 mM HEPES pH 7.2, 100 mM NaCl, 1 mM TCEP, and 0.002% Tween 20 with a final concentration of DMSO of 1.5%. The plate was incubated at room temperature in the dark, first for 5 min on a shaker at 300 rpm, then for another 30 min on the bench. FP was measured using the EnVision Multimode Plate Reader (PerkinElmer) with fluorescence excitation and emission wavelengths of 480 nm and 535 nm. The percentage of HIF-1α displacement was calculated by normalization to maximum fluorescence anisotropy (or 0% displacement of the HIF-1α peptide) and minimum fluorescence anisotropy (or 100% displacement of the HIF-1α peptide), which were determined by “top” and “bottom” values of the curve fit of fluorescence anisotropy against G6374 concentration in GraphPad Prism 10 (GraphPad Software, Inc.). The IC50 values were then determined by curve fitting with the percentage of HIF-1α displacement against G6374 concentration in GraphPad Prism 10 (GraphPad Software, Inc.).

VCB [3] = experiment: as above; assay type: binding; conditions: ratio between IC50 of VCB: G6374 and VCB: (G6374 + IRE1)
Procedure: as §2

Chain of VCB (Homo sapiens, UniProt P40337) (Q15370 whole entry): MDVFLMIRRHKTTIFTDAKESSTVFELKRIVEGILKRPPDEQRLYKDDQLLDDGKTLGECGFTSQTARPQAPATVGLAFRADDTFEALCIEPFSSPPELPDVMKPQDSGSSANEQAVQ
Chain of VCB (Homo sapiens, UniProt P40337) (Q15369 17-112, further chain): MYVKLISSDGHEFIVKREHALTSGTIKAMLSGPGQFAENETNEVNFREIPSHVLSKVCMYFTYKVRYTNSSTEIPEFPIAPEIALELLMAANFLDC
Chain of VCB (Homo sapiens, UniProt P40337) (P40337 55-213): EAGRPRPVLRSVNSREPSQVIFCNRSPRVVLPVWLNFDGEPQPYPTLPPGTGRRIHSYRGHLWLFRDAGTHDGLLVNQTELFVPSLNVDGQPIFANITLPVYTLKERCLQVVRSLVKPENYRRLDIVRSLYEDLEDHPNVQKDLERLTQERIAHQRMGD
T2 sequence (O75460 19-977 H579A): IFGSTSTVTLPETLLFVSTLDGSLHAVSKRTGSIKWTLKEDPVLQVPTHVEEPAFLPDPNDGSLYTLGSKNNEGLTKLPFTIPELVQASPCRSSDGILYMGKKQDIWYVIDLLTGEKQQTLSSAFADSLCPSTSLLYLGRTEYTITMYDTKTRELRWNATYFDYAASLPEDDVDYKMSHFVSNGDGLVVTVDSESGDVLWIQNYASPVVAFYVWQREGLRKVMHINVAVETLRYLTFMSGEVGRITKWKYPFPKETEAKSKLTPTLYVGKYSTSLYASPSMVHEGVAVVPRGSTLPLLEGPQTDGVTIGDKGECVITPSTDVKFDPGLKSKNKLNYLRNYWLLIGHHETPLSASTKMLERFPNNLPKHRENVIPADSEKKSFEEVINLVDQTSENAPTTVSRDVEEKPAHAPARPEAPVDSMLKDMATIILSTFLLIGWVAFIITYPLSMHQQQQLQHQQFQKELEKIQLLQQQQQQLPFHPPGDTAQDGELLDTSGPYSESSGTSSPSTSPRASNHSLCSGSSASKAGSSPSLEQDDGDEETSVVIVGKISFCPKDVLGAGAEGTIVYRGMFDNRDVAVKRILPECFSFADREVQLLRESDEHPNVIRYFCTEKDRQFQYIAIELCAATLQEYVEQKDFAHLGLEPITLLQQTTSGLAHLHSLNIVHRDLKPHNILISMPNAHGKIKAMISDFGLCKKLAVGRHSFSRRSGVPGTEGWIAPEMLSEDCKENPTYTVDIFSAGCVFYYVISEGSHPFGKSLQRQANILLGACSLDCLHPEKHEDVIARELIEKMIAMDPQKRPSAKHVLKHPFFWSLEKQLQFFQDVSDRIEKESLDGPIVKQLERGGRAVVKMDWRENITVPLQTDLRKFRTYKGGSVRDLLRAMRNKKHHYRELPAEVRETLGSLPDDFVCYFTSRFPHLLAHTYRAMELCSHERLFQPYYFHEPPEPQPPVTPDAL
T2 sequence (P40337 whole entry): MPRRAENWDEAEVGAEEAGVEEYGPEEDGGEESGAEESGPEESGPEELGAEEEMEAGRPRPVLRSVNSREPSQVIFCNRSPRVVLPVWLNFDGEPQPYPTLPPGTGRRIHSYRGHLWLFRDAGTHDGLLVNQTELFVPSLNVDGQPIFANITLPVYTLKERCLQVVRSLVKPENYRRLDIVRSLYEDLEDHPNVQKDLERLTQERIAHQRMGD
T2 sequence (Q15369 whole entry partner): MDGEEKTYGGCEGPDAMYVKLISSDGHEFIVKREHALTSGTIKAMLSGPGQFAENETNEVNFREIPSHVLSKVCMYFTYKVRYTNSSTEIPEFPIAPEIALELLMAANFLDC
T2 sequence (Q15370 whole entry partner): as the sequence (Q15370 whole entry) above
T2 sequence (Q13617 whole entry partner): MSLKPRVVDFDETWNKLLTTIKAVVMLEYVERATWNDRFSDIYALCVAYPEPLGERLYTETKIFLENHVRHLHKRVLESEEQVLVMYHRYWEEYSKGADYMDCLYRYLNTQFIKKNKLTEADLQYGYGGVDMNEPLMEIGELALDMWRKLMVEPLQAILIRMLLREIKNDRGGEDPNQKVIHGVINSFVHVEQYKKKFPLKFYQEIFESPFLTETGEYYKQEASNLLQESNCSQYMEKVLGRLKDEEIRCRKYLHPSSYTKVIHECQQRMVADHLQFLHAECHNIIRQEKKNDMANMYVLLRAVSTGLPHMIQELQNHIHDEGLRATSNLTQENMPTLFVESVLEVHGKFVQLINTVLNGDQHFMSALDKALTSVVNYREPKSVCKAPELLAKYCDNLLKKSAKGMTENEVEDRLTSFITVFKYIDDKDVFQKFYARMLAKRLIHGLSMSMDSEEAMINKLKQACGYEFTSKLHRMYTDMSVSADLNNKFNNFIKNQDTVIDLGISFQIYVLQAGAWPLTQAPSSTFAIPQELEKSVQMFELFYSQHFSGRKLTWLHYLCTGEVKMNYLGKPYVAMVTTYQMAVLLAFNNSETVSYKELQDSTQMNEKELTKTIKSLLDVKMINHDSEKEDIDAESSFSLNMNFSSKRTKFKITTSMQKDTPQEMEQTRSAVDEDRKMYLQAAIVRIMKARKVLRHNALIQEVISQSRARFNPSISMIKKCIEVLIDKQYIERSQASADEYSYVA
T2 sequence (P62877 whole entry partner): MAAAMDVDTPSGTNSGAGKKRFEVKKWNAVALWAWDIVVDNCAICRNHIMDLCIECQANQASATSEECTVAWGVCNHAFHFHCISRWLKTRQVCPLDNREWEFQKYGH
T3 sequence (P62877 whole entry): as the sequence (P62877 whole entry partner) above
T3 sequence (Q15370 whole entry, further chain): as the sequence (Q15370 whole entry) above
T3 sequence (Q15369 whole entry, further chain): as the sequence (Q15369 whole entry partner) above
T3 sequence (Q13617 whole entry, further chain): as the sequence (Q13617 whole entry partner) above
T3 sequence (P40337 whole entry): as the sequence (P40337 whole entry) above
T3 sequence (O75460 19-977 E621A/E836A): as the sequence (O75460 19-977 H579A) above, with A561H, E603A, E818A counted along it

Cc1ncsc1-c1ccc(CNC(=O)[C@@H]2C[C@@H](O)CN2C(=O)[C@@H](NC(=O)CCCCN2CCN([C@H]3CC[C@H](Nc4ncc5ccc(=O)n(C(C)C)c5n4)CC3)CC2)C(C)(C)C)cc1 [G6374]
IRE1.KR polyubiquitination in vitro [1]: clear G6374-dependent IRE1 polyubiquitination | Dmax (IRE1 H579A): 27% | EC50 (IRE1 E621A, E836A:VHL): 50 ± 20 nM | IC50 (VCB [2]; G6374 alone, absence of IRE1, N=3, mean ± SEM): 2480 ± 112 nM | IC50 (VCB [2]; G6374 in the presence of saturating IRE1 (2.4 µM), N=3, mean ± SEM): 492 ± 21 nM | Cooperativity alpha (VCB [3]): 5 and 5 ± 0.15
